Experiment [1] deals with HEK293 cells. The experiment is described as follows: Immunofluorescence of mTOR and LAMP2 in HEK293 cells. Conditions: amino acid-deprived HEK293; 100 μM for 1 h. In kind it is cell-based, human. As to the method: Cells were grown on poly-L-lysine (Sigma) coated 4 well chamber slides, fixed with 4% paraformaldehyde for 15 min at 37° C., then washed with glycine-PBS and permeablized with 0.3% Triton X-100 for 10 min. After blocking with 3% BSA in PBS, cells were stained for mTOR and LAMP2. Images were obtained by confocal microscope.

For experiment [2], the system named is amino acid-deprived primary hepatocytes. The experiment can be described thus: Amino acid-deprived primary hepatocytes (immunoblot). It is filed as cell-based, mouse. Conditions: absence of amino acids; 100 μM for 2 h. The method, then: (§1) Primary hepatocytes were isolated from C57BL/6J mice by digesting liver with perfusion of collagenase type IV as described previously. After perfusion, 16×10^5 cells were plated on collagen-coated 60 mm dishes in Dulbecco's modified Eagle's medium (DMEM)/F12 supplemented with fetal bovine serum (FBS), penicillin/streptomycin and 100 nM dexamethasone. After 4 h, the medium was changed to DMEM/F12 containing penicillin/streptomycin.
(In general: In western blotting, separated proteins are transferred to a membrane and probed.)

The subject of experiment [3] is CONVR mice. The experiment is described as follows: Metabolic cages (PhenoMaster) in CONVR mice. In kind it is in vivo, mouse. Conditions: 100 μg i.p. twice a day for 3 days. The method, then: Mice were singly housed for two days before being transferred to the PhenoMaster cages, and allowed an additional 2 days to acclimatize to the new cage before taking measurements. Parameters were automatically measured every 15 min for 5 days. During the measurements, the mice had free access to water and food. […] Oxygen consumption (VO2) was calculated from measurements of oxygen and carbon dioxide concentration in the reference cage compared to the sample cage. Measurements of oxygen consumption and energy expenditure were adjusted to lean body mass, which was determined by MRI (EchoMRI, Houston, Tex., USA).

The test system of experiment [4] is HEK293 cells. The experiment can be described thus: siRNA knock-down in HEK293 cells, ImP-induced signaling. Conditions: HEK293 transfected with control or p38δ/p38γ siRNA. It is filed as cell-based, human. As to the method: HEK293 cells (ATCC CRL-1573) were grown and maintained in high-glucose (4.5 g/l glucose) DMEM with 10% (v/v) FBS. All HEK293 cell experiments were performed in serum-starved and amino acid-deprived conditions. 24 h after transfection (with plasmids or siRNA as indicated), HEK293 cells cultured in poly-L-lysine-coated 60 mm dishes were rinsed twice with DMEM without FBS and incubated in serum-free DMEM for 18 h. HEK293 cells were then washed once with EBSS and incubated in EBSS for 1 h.
FLAG mTOR and HA Raptor were kindly provided by Dr Sung Ho Ryu (Pohang University of Science and Technology, Pohang, South Korea). Myc-Rag GTPases constructs were gifts from Dr Do-Hyung Kim (University of Minnesota, Minn., USA). AIIStars negative control siRNA, p38δ siRNA1 (Hs_MAPK13_5 targeting […] (SEQ ID NO: 15)), p38δ siRNA2 (Hs_MAPK13_6 targeting […] (SEQ ID NO: 16)), p38γ siRNA1 (Hs_MAPK12_5 targeting […] (SEQ ID NO: 17)), p38γ siRNA2 (Hs_MAPK12_8 targeting […] (SEQ ID NO: 18)), p38α siRNA (Hs_MAPK14_5 targeting […] (SEQ ID NO: 21)), p38β siRNA (Hs_MAPK11_6 targeting […] (SEQ ID NO: 22)), S6K1 siRNA (Hs_RPS6KB1_5 targeting […] (SEQ ID NO: 23)) and Raptor siRNA (Hs_RPTOR_1 targeting […] (SEQ ID NO: 24)) (Qiagen, Valencia, Calif.) were transfected into HEK293 cells using Lipofectamin 2000 according to the manufacturer's instructions.

Experiment [5] concerns primary hepatocytes. The experiment can be described thus: Insulin signaling in primary hepatocytes (immunoblot). It is filed as cell-based, mouse. The method, then:
Snap-frozen liver and harvested cells were lysed in buffer containing 50 mM Tris-HCl (pH 7.4), 150 mM NaCl, 1 mM EDTA, 1 mM Na3VO4, 20 mM NaF, 10 mM glycerophosphate, 1 mM PMSF, 10% glycerol, 1% Triton X-100 and protease inhibitor cocktail. For immunoprecipitation, the cell lysates were obtained in 0.3% CHAPS-containing lysis buffer, sonicated and centrifuged at 20,000 g for 15 min at 4° C., and the supernatant was incubated with 20 μl of anti-FLAG beads (Sigma) at 4° C. for 4 h under gentle agitation.
as §1

Experiment [6] concerns CONVR mice. The experiment can be described thus: Intraperitoneal glucose tolerance test in CONVR mice. In kind it is in vivo, mouse. Conditions: 100 μg i.p. twice per day for 3 days. As to the method:
An intraperitoneal glucose tolerance test (using 1 g glucose per kg body weight) was then performed after a 4 h fast. Blood glucose levels were measured from tail blood using HemoCue201+analyzer (HemoCue, Angelholm, Sweden). Liver and plasma samples were collected after a 4 h fast. Mice were under isoflurane anesthesia and killed by cervical dislocation. Fresh liver was taken and snap-frozen in liquid nitrogen and stored at −80° C. until protein extraction.

The target in experiment [7] is T1, p38γ (Homo sapiens, UniProt P53778).
T1 construct: purchased Abcam ab125651
T1 sequence (P53778 1-367): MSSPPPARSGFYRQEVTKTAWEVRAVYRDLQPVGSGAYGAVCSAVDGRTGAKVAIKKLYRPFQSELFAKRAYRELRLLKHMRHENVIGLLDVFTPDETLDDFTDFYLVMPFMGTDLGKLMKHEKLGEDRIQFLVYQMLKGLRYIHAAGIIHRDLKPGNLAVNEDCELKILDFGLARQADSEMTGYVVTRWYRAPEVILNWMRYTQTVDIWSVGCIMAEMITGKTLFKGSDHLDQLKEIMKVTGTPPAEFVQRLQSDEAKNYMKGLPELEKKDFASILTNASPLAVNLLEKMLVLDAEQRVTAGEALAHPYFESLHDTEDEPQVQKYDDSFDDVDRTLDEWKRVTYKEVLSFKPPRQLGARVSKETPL
The experiment is described as follows: In vitro kinase assay. In kind it is biochemical. The method, then: 400 ng of recombinant p62 (Abcam, ab95320) and 200 ng of recombinant p38γ (Abcam, ab125651) were incubated in a kinase assay buffer [25 mM MOPS (pH 7.2), 12.5 mM beta-glycerol-phosphate, 25 mM MgCl2, 5 mM EGTA, 2 mM EDTA and 1 mM DTT] for 15 min on ice.

Take `O=C(O)CCc1cnc[nH]1` [imidazole propionate]: in experiment [1], the “lysosomal localization of mTOR” value is listed as “induced”. In addition, the S6K1 phosphorylation entry is recorded as “strongly induced” in experiment [2] and “increased” in experiment [5] (ImP 100 μM). The “energy expenditure in the early dark phase” value in experiment [3] was “significantly reduced”. The total locomotor activity entry in experiment [3] is recorded as “not significantly reduced”. Further, the DEPTOR level result in experiment [4] is reported as “not affected”. In addition, the values for the IRS protein levels entry in experiment [5] (100 μM for 8 h) and in experiment [5] (100 μM for 20 h) were “did not affect” and “reduced”, respectively. Further, the “insulin-induced IRS1 Y612 phosphorylation” value in experiment [5] (100 μM for 8 h, insulin 5 nM) is “blunted”. For the same compound, the “basal Akt phosphorylation at both S473 and T308” value in experiment [5] (8 h) was “induced”. For the same compound, the “insulin-induced Akt S473 phosphorylation” value in experiment [5] (8 h, insulin 5 nM) is recorded as “reduced”; in experiment [5] (14 h) it was “lower”. Further, the “insulin-induced Akt T308 phosphorylation” value in experiment [5] (8 h, insulin 5 nM) is “not”; in experiment [5] (14 h, vs vehicle), “higher”. Moreover, the IRS1 level entry in experiment [5] (14 h) is on record as “dramatic reduction”. The “basal Akt phosphorylation at S473 and T308” value in experiment [5] (14 h) is reported as “increase”. Besides, the p62 phosphorylation entry in experiment [5] (ImP 100 μM for 24 h) was “induced”. Further, the glucose tolerance result in experiment [6] is “impaired glucose tolerance”. Moreover, in experiment [7] (recombinant p38γ and p62, ATP 50 μM), the “p62 phosphorylation (T269 and S272) by p38γ” value is listed as “enhanced”. Further, the p38γ autophosphorylation result in experiment [7] (together with ATP) is listed as “induced”.

Source of the values: patent publication US20190369122A1, “METABOLIC DISORDERS” (priority 2016, published 2019).
